Data published in patent US10815274B2, “Immunogenic WT-1 peptides and methods of use thereof” (Memorial Sloan Kettering Cancer Center, priority 2012, dated 2020).
Where a SMILES comes first, the peptide text is derived from it.

Key:
Details in all cases: 50:1 E:T
[1] = tested on: WT1- allo APC with restricting HLA allele; test: Cr51 release assay, cytotoxic CTL response vs unloaded allogeneic APC sharing restricting HLA allele; assay type: cell-based, human
[2] = tested on: WT1- autologous APC; test: Cr51 release assay, cytotoxic CTL response vs unmodified autologous APC; assay type: cell-based, human
[3] = tested on: WT1+ allo APC with restricting HLA allele loaded with WT1 peptide; test: Cr51 release assay, cytotoxic CTL response vs peptide loaded allogeneic APC sharing restricting HLA allele (HLA restriction)
[4] = tested on: WT1 peptide loaded autologous APC; test: Cr51 release assay, cytotoxic CTL response vs peptide loaded autologous APC; assay type: cell-based, human

CC(C)C[C@H](NC(=O)[C@H](CS)NC(=O)[C@H](CO)NC(=O)[C@@H]1CCCN1)C(=O)N[C@@H](CCC(=O)O)C(=O)N[C@@H](CO)C(=O)N[C@@H](CCC(N)=O)C(=O)N1CCC[C@H]1C(=O)N[C@@H](C)C(=O)O [SEQ ID NO: 162] (H-PSCLESQPA-OH; N-terminus and C-terminus assumed)
Cytotoxic CTL response, % vs WT1- allo APC with restricting HLA allele ([1]; HLA allele B3501): 0%
Cytotoxic CTL response, % vs WT1- autologous APC ([2]; HLA allele B3501): 0%
Cytotoxic CTL response, % vs WT1+ allo APC with restricting HLA allele loaded with WT1 peptide ([3]; HLA allele B3501): 21%
Cytotoxic CTL response, % vs WT1 peptide loaded autologous APC ([4]; HLA allele B3501): 35%

CC(C)[C@H](NC(=O)[C@@H](NC(=O)[C@H](CO)NC(=O)[C@H](Cc1ccc(O)cc1)NC(=O)CNC(=O)[C@H](CCC(N)=O)NC(=O)[C@@H](N)CC(N)=O)[C@@H](C)O)C(=O)N[C@H](C(=O)N[C@@H](Cc1ccccc1)C(=O)O)[C@@H](C)O [SEQ ID NO: 163] (H-NQGYSTVTF-OH; N-terminus and C-terminus assumed)
Cytotoxic CTL response, % vs WT1- allo APC with restricting HLA allele ([1]; HLA allele A0101): 4%
Cytotoxic CTL response, % vs WT1- autologous APC ([2]; HLA allele A0101): 2%
Cytotoxic CTL response, % vs WT1+ allo APC with restricting HLA allele loaded with WT1 peptide ([3]; HLA allele A0101): 15%
Cytotoxic CTL response, % vs WT1 peptide loaded autologous APC ([4]; HLA allele A0101): 19%

C[C@H](NC(=O)[C@H](C)NC(=O)[C@H](Cc1c[nH]cn1)NC(=O)[C@@H](N)Cc1c[nH]cn1)C(=O)N[C@@H](CCC(N)=O)C(=O)N[C@@H](Cc1ccccc1)C(=O)N1CCC[C@H]1C(=O)N[C@@H](CC(N)=O)C(=O)N[C@@H](Cc1c[nH]cn1)C(=O)O [SEQ ID NO: 164] (H-HHAAQFPNH-OH; N-terminus and C-terminus assumed)
Cytotoxic CTL response, % vs WT1- allo APC with restricting HLA allele ([1]; HLA allele B3801): 1%
Cytotoxic CTL response, % vs WT1- autologous APC ([2]; HLA allele B3801): 0%
Cytotoxic CTL response, % vs WT1+ allo APC with restricting HLA allele loaded with WT1 peptide ([3]; HLA allele B3801): 17%
Cytotoxic CTL response, % vs WT1 peptide loaded autologous APC ([4]; HLA allele B3801): 26%

C[C@@H](O)[C@H](NC(=O)[C@H](CS)NC(=O)[C@H](CO)NC(=O)[C@H](CC(=O)O)NC(=O)[C@@H](NC(=O)[C@@H]1CCCN1C(=O)[C@@H](NC(=O)[C@H](Cc1c[nH]cn1)NC(=O)[C@@H](N)CS)[C@@H](C)O)[C@@H](C)O)C(=O)O [SEQ ID NO: 166] (H-CHTPTDSCT-OH)
Cytotoxic CTL response, % vs WT1- allo APC with restricting HLA allele ([1]; HLA allele B4402): 7%
Cytotoxic CTL response, % vs WT1- autologous APC ([2]; HLA allele B4402): 8%
Cytotoxic CTL response, % vs WT1+ allo APC with restricting HLA allele loaded with WT1 peptide ([3]; HLA allele B4402): 19%
Cytotoxic CTL response, % vs WT1 peptide loaded autologous APC ([4]; HLA allele B4402): 37%

CC(C)C[C@H](NC(=O)[C@@H](NC(=O)[C@H](C)NC(=O)CNC(=O)[C@@H](N)CC(C)C)[C@@H](C)O)C(=O)N[C@@H](CCCCN)C(=O)NCC(=O)N[C@H](C(=O)N[C@@H](C)C(=O)N[C@@H](C)C(=O)O)C(C)C [SEQ ID NO: 176] (H-LGATLKGVAA-OH; N-terminus and C-terminus assumed)
Cytotoxic CTL response, % vs WT1- allo APC with restricting HLA allele ([1]; HLA allele A0203): 0%
Cytotoxic CTL response, % vs WT1- autologous APC ([2]; HLA allele A0203): 0%
Cytotoxic CTL response, % vs WT1+ allo APC with restricting HLA allele loaded with WT1 peptide ([3]; HLA allele A0203): 21%
Cytotoxic CTL response, % vs WT1 peptide loaded autologous APC ([4]; HLA allele A0203): 35%

CC(C)C[C@H](NC(=O)[C@@H](N)[C@@H](C)O)C(=O)NCC(=O)N[C@H](C(=O)N[C@@H](C)C(=O)N[C@@H](C)C(=O)NCC(=O)N[C@@H](CO)C(=O)O)C(C)C [SEQ ID NO: 177] (H-TLGVAAGS-OH; N-terminus and C-terminus assumed)
Cytotoxic CTL response, % vs WT1- allo APC with restricting HLA allele ([1]; HLA allele A6901): 0%
Cytotoxic CTL response, % vs WT1- autologous APC ([2]; HLA allele A6901): 4%
Cytotoxic CTL response, % vs WT1+ allo APC with restricting HLA allele loaded with WT1 peptide ([3]; HLA allele A6901): 57%
Cytotoxic CTL response, % vs WT1 peptide loaded autologous APC ([4]; HLA allele A6901): 80%

CC(C)C[C@H](NC(=O)[C@H](Cc1c[nH]cn1)NC(=O)[C@H](CC(=O)O)NC(=O)[C@H](CO)NC(=O)[C@H](CCCNC(=N)N)NC(=O)[C@H](CO)NC(=O)[C@H](Cc1ccccc1)NC(=O)[C@H](CCCCN)NC(=O)[C@@H](N)CCCNC(=N)N)C(=O)O [SEQ ID NO: 181] (H-RKFSRSDHL-OH; N-terminus and C-terminus assumed)
Cytotoxic CTL response, % vs WT1- allo APC with restricting HLA allele ([1]; HLA allele A0201): 1%
Cytotoxic CTL response, % vs WT1- autologous APC ([2]; HLA allele A0201): 3%
Cytotoxic CTL response, % vs WT1+ allo APC with restricting HLA allele loaded with WT1 peptide ([3]; HLA allele A0201): 27%
Cytotoxic CTL response, % vs WT1 peptide loaded autologous APC ([4]; HLA allele A0201): 40%
